Measured values taken from publication PMC4295030, “Synthesis and molecular docking of novel non-competitive antagonists of GluK2 receptor” (Medicinal Chemistry Research, 2014).

Test system: T1, GluK2 receptor
T1 construct: gene GRIK2
Test: aequorin luminescence Ca2+ influx assay in HEK293 cells
Type: cell-based
Conditions: 275 μM glutamate as agonist, Ringer buffer + 100 mM CaCl2
Text: aequorin luminescence Ca2+ influx assay in HEK293 cells on GluK2 receptor

Row | IC50 (non-competitive) | SMILES | GluK2 inhibition at 100 µM, %
1 | 12 µM | COc1ccc2c(c1)c(C)c(-c1cccs1)n2C [compound 3, 5-methoxy-1,3-dimethyl-2-(2-thienyl)indole] | 
2 |  | O=C1CCCc2c1c1ccccc1n2Cc1ccc(Cl)cc1 [compound 7, 9-(4-chlorobenzyl)-4-oxo-1,2,3,4-tetrahydrocarbazole] | 22%
